Data on five compounds can be found in ChEMBL document CHEMBL6114945, “Cyclic vinyl sulfones activate NRF2 to protect from oxidative stress-induced programmed necrosis” (Bioorg Med Chem Lett, 2025).

Activity calls are given as the source filed them. The calls are words filed in the database; no cut-off is given here. Where a SMILES comes first, the peptide text is derived from it. The star is where a group is joined. Cbz = O=C(OCc1ccccc1)*

A short description of data set [1]: Inhibition of proteasome-mediated NRF2 degradation in human HeLa cells assessed as increase in NRF2 level at 10 uM measured after 6 hrs by Western blotting analysis. Format: toxicity, cell-based. (In general: Immunoblotting shows a protein as a band on a membrane.)
Data set [2] has as its target T1, Keap1/Nrf2 (Homo sapiens) (UniProt Q16236+Q14145). The data set is described as follows: Inhibition of KEAP1 BTB domain-NRF2 protein-protein interaction in human HeLa cells assessed as increase in NRF2 level at 50 nM measured after 6 hrs by Western blotting analysis. Format: cell-based.
Data set [3] deals with T1, Keap1/Nrf2 (Homo sapiens). The data set is described as follows: Inhibition of KEAP1 BTB domain-NRF2 protein-protein interaction in human HeLa cells assessed as upregulation of NRF2 level at 2.5 uM measured after 18 hrs by Western blotting analysis. Format: cell-based.
For data set [4], the system named is A549. The data set is described as follows: Inhibition of KEAP1 mutant-NRF2 protein-protein interaction in human A549 cells assessed as upregulation of HO-1 level at 2.5 to 20 uM measured after 18 hrs by Western blotting analysis. Format: cell-based. Conditions: dose 2.5-20 µM.
Data set [5] relates to A549. The data set is described as follows: Inhibition of KEAP1 mutant-NRF2 protein-protein interaction in human A549 cells assessed as upregulation of NRF2 level at 2.5 to 20 uM measured after 18 hrs by Western blotting analysis. Conditions: dose 2.5-20 µM. The class given is cell-based.
The target of data set [6] is T1, Keap1/Nrf2 (Homo sapiens). The data set is described as follows: Inhibition of KEAP1 BTB domain-NRF2 protein-protein interaction in human HCT-116 cells assessed as upregulation of NRF2 level at 2.5 to 20 uM measured after 18 hrs by Western blotting analysis. Format: cell-based. The conditions noted are these: dose 2.5-20 µM.
Data set [7] deals with T1, Keap1/Nrf2 (Homo sapiens). The data set is described as follows: Inhibition of KEAP1 BTB domain-NRF2 protein-protein interaction in human HeLa cells assessed as upregulation of HO-1 level at 5 uM measured after 18 hrs by Western blotting analysis. The class given is cell-based.
Data set [8] relates to HCT-116. The data set is described as follows: Cytotoxicity against human HCT-116 cells at >20 uM. Format: toxicity, cell-based. Conditions: hct-116, 20 µM.
Data set [9] deals with T1, Keap1/Nrf2 (Homo sapiens). The data set is described as follows: Inhibition of KEAP1-NRF2 protein-protein interaction in human HeLa cells assessed as increase in NRF2 level at 50 uM measured after 6 hrs by Western blotting analysis. Format: cell-based.
Data set [10] concerns the target T1, Keap1/Nrf2 (Homo sapiens). The data set is described as follows: Inhibition of KEAP1 BTB domain-NRF2 protein-protein interaction in human HeLa cells assessed as upregulation of HO-1 level at 10 uM measured after 8 to 24 hrs by Western blotting analysis. Format: cell-based. The conditions noted are these: time 8-24 hrs.
Data set [11] relates to HeLa. Briefly: Protection against erastin-induced ferroptosis in human HeLa cells assessed as reduction in cell death. The class given is functional, cell-based.
Data set [12] addresses Kelch-like ECH-associated protein 1 (Homo sapiens) (UniProt Q14145). The data set is described as follows: Binding affinity to KEAP1 in human HeLa cells assessed as appearance of high molecular weight bands of modified KEAP1 at 10 uM measured after 4 to 24 hrs by Western blotting analysis. Format: cell-based. The conditions noted are these: time 4-24 hrs.
Data set [13] has as its target T1, Keap1/Nrf2 (Homo sapiens). Briefly: Inhibition of KEAP1 BTB domain-NRF2 protein-protein interaction in human HeLa cells assessed as upregulation of NQO1 mRNA expression at 20 uM measured after 8 hrs by RT-PCR analysis. The class given is cell-based.
The subject of data set [14] is NCI-H1299. The data set is described as follows: Protection against RSL3-induced ferroptosis in human NCI-H1299 cells at 5 to 10 uM preincubated for 6 hrs followed by RSL3 addition and measured after 18 hrs by crystal violet staining based assay. The conditions noted are these: dose 5-10 µM, time 24.0 hrs. Format: functional, cell-based.
Data set [15] concerns the target T1, Keap1/Nrf2 (Homo sapiens). The data set is described as follows: Inhibition of KEAP1 BTB domain-NRF2 protein-protein interaction in human HeLa cells assessed as upregulation of NQO1 mRNA expression at 40 uM measured after 4 to 8 hrs by RT-PCR analysis. Format: cell-based. Conditions: time 4-8 hrs.
The target in data set [16] is T1, Keap1/Nrf2 (Homo sapiens). The data set is described as follows: Inhibition of KEAP1 BTB domain-NRF2 protein-protein interaction in human HCT-116 cells assessed as upregulation of NRF2 level at 2.5 to 40 uM measured after 18 hrs by Western blotting analysis. Format: cell-based. Conditions: dose 2.5-40 µM.
The test system of data set [17] is HeLa. Briefly: Effect on KEAP1 mRNA expression level in human HeLa cells at 20 to 40 uM measured after 4 to 8 hrs by RT-PCR analysis. The class given is functional, cell-based. The conditions noted are these: dose 20-40 µM, time 4-8 hrs.
The target of data set [18] is T1, Keap1/Nrf2 (Homo sapiens). Briefly: Inhibition of KEAP1 BTB domain-NRF2 protein-protein interaction in human HeLa cells assessed as upregulation of NRF2 mRNA expression at 20 to 40 uM measured after 4 hrs by RT-PCR analysis. The conditions noted are these: dose 20-40 µM. Format: cell-based.
For data set [19], the target named is T1, Keap1/Nrf2 (Homo sapiens). The data set is described as follows: Inhibition of KEAP1 BTB domain-NRF2 protein-protein interaction in human NCI-H1299 cells assessed as upregulation of GCSc expression at 1.25 to 20 uM measured after 18 hrs by Western blot analysis. Format: cell-based. Conditions: dose 1.25-20 µM.
The target of data set [20] is T1, Keap1/Nrf2 (Homo sapiens). Briefly: Inhibition of KEAP1 BTB domain-NRF2 protein-protein interaction in human HeLa cells assessed as upregulation of NRF2 level at 10 uM measured after 8 to 24 hrs by Western blotting analysis. Format: cell-based. Conditions: time 8-24 hrs.
For data set [21], the target named is T1, Keap1/Nrf2 (Homo sapiens). The data set is described as follows: Inhibition of KEAP1 BTB domain-NRF2 protein-protein interaction in human NCI-H1299 cells assessed as upregulation of SLC7A11 expression at 1.25 to 20 uM measured after 18 hrs by Western blot analysis. Format: cell-based. The conditions noted are these: dose 1.25-20 µM.
For data set [22], the target named is T1, Keap1/Nrf2 (Homo sapiens). Briefly: Inhibition of KEAP1 BTB domain-NRF2 protein-protein interaction in human HeLa cells assessed as upregulation of NRF2 level at 5 to 40 uM measured after 18 hrs by Western blotting analysis. Format: cell-based. The conditions noted are these: dose 5-40 µM.
The subject of data set [23] is NCI-H1299. The data set is described as follows: Protection against RSL3-induced ferroptosis in human NCI-H1299 cells assessed as reduction in cell death at 5 to 10 uM preincubated for 6 hrs followed by RSL3 addition and measured after 18 hrs by morphological analysis. Format: functional, cell-based. Conditions: dose 5-10 µM, time 24.0 hrs.
In data set [24] the target is T1, Keap1/Nrf2 (Homo sapiens). The data set is described as follows: Inhibition of KEAP1 BTB domain-NRF2 protein-protein interaction in human HeLa cells assessed as upregulation of p-62 mRNA expression at 20 to 40 uM measured after 8 hrs by RT-PCR analysis. Format: cell-based. The conditions noted are these: dose 20-40 µM.
Data set [25] deals with T1, Keap1/Nrf2 (Homo sapiens). Briefly: Inhibition of KEAP1 BTB domain-NRF2 protein-protein interaction in human NCI-H1299 cells assessed as upregulation of HO-1 expression at 1.25 to 20 uM measured after 6 hrs by Western blot analysis. The class given is cell-based. Conditions: dose 1.25-20 µM.
Data set [26] deals with T1, Keap1/Nrf2 (Homo sapiens). The data set is described as follows: Inhibition of KEAP1 BTB domain-NRF2 protein-protein interaction in human HeLa cells assessed as upregulation of HO-1 level at 40 uM measured after 18 hrs by Western blotting analysis. Format: cell-based.
Data set [27] has as its system HeLa. The data set is described as follows: Cytotoxicity against human HeLa cells at 40 uM. The class given is toxicity, cell-based.
Data set [28] deals with T1, Keap1/Nrf2 (Homo sapiens). The data set is described as follows: Inhibition of KEAP1 BTB domain-NRF2 protein-protein interaction in human HeLa cells assessed as upregulation of HO-1 mRNA expression at 20 uM measured after 4 to 8 hrs by RT-PCR analysis. Format: cell-based. The conditions noted are these: time 4-8 hrs.
For data set [29], the system named is HCT-116. Briefly: Cytotoxicity against human HCT-116 cells at 40 uM. The class given is toxicity, cell-based. The conditions noted are these: hct-116, 40 µM.
In data set [30] the target is T1, Keap1/Nrf2 (Homo sapiens). The data set is described as follows: Inhibition of KEAP1 BTB domain-NRF2 protein-protein interaction in human HeLa cells assessed as upregulation of NRF2 mRNA expression at 20 to 40 uM measured after 8 hrs by RT-PCR analysis. The class given is cell-based. The conditions noted are these: dose 20-40 µM.
The target of data set [31] is T1, Keap1/Nrf2 (Homo sapiens). Briefly: Inhibition of KEAP1 BTB domain-NRF2 protein-protein interaction in human NCI-H1299 cells assessed as increase in nuclear localization of NRF2 at 20 uM measured after 18 hrs by immunostaining based microscopic analysis. Format: cell-based.
Data set [32] deals with NCI-H1299. The data set is described as follows: Protection against RSL3-induced ferroptosis in human NCI-H1299 cells at 10 uM preincubated for 6 hrs followed by RSL3 addition and measured after 18 hrs by phase contrast microscopy. Format: functional, cell-based.
In data set [33] the target is T1, Keap1/Nrf2 (Homo sapiens). The data set is described as follows: Inhibition of KEAP1 BTB domain-NRF2 protein-protein interaction in human NCI-H1299 cells assessed as upregulation of p-62 expression at 1.25 to 20 uM measured after 18 hrs by Western blot analysis. The class given is cell-based. The conditions noted are these: dose 1.25-20 µM.
Data set [34] has as its target Kelch-like ECH-associated protein 1 (Homo sapiens) (UniProt Q14145). Briefly: Binding affinity to KEAP1 in human HCT-116 cells assessed as appearance of high molecular weight bands of modified KEAP1 at 2.5 to 40 uM measured after 18 hrs by Western blotting analysis. Format: cell-based. Conditions: dose 2.5-40 µM.

T1 sequence (Q14145 whole entry, looked up, the tested form may be a part): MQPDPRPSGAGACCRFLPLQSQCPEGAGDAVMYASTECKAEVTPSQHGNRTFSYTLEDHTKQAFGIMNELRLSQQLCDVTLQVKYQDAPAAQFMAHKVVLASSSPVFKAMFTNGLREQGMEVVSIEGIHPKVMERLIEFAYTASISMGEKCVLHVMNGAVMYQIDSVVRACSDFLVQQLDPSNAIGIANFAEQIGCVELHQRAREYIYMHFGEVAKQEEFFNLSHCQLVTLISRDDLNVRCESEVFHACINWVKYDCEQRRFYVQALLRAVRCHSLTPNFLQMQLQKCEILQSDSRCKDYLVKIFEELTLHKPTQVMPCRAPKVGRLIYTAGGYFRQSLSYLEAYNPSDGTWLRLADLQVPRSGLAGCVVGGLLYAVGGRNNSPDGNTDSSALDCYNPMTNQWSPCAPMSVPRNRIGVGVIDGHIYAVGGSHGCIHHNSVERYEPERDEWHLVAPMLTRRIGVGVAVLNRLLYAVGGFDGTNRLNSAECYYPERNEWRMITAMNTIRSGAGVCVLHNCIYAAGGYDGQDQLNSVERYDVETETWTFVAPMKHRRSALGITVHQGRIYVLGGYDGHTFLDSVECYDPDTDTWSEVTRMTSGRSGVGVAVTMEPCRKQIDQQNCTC
T1 sequence (Q16236 whole entry, looked up, the tested form may be a part): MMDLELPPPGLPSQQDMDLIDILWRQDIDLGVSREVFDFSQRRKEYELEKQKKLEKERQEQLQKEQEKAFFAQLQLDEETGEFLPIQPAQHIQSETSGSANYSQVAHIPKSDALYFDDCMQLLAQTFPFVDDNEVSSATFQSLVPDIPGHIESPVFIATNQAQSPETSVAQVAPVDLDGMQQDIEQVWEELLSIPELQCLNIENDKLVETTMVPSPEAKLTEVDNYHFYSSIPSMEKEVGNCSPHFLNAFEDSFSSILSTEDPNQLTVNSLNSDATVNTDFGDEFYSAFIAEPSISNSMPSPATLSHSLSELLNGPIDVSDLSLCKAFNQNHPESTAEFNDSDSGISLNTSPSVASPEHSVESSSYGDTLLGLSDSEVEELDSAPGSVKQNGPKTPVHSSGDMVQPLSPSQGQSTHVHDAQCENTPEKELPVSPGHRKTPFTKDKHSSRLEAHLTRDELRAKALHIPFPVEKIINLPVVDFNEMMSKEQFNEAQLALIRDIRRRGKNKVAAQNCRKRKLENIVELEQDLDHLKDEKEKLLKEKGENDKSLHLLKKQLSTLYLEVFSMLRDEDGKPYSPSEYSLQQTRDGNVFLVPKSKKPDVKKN
Kelch-like ECH-associated protein 1 (Homo sapiens), sequence (Q14145 whole entry, the tested form may be a part): as the sequence (Q14145 whole entry, looked up, the tested form may be a part) above

Take `CC(C)C[C@@H](C=O)NC(=O)[C@H](CC(C)C)NC(=O)[C@H](CC(C)C)NC(=O)OCc1ccccc1` [MG-132] (Cbz-Leu-Leu-Leu-aldehyde): the “inhibition (INH)” value in [1] is listed as “Active”.

`CC1(C)CC[C@]2(C(=O)O)CC[C@]3(C)[C@H](C(=O)C=C4[C@@]5(C)C=C(C#N)C(=O)C(C)(C)[C@@H]5CC[C@]43C)[C@@H]2C1`: the inhibition result in data set [2] was “Active”.

For `CC1=C2C(CCS2(=O)=O)c2c(O)ccc(O)c2C1` (centres undefined), the inhibition result in data set [3] and in data set [7] was “Active” each time. The inhibition result with A549 [4] and with A549 [5] was “inactive” each time. Further, the inhibition result in data set [6] is recorded as “Active; Upregulated Nrf2 To A Lesser Degree”. Also, the Activity result with HCT-116 [8] is reported as “Toxic”.

Regarding `CC(C)(C)c1cc(O)ccc1O`, the inhibition result in [9] was “Active”.

As for `CC1=C2C(CCS2(=O)=O)c2c(c(O)c3ccccc3c2O)C1` (centres undefined), the inhibition entry in data set [10] is given as “Active; Most Efficient Effect Was Observed After 8 Hrs”; in data set [15], “Active; Highly Upregulated”; in [16], “Active; Stronger Activation Of Nrf2 Observed”; in [20] it was “Active; Most Efficient Effect Was Observed After 8 Hrs”; in data set [22], “Active; Stronger Activation Of Nrf2 Observed”; in data set [24] it was “Active; Significant Upregulation Observed”. In addition, the inhibition result is given as “Active; Most Efficiently Upregulated The Ho-1 Level At 40 Um” in [26] and “Active; Significant Changes Observed” in [28]. The outcome (in the data set on HeLa [11]; in data set [12]; in data set [34]) was Active. Further, the inhibition entry in [13], in data set [19], in data set [21], in [25], in data set [30] and in data set [31] was “Active” each time. Further, the inhibition entry in [33] was “Active”. For the same compound, the Activity entry is “Active; Almost Complete Protection Observed” in the data set with NCI-H1299 [14]; “Active; Almost Complete Protection Observed” in the data set on NCI-H1299 [23]; “Non-toxic” in the data set with HeLa [27]; “Non-toxic” in the data set with HCT-116 [29]; “Active; Slightly More Profound Effect Observed At 10 Um” in the data set on NCI-H1299 [32]. The outcome in the data set on HeLa [17] was inactive. In data set [18], the inhibition result is “inactive”.
